Laboratory results: patent US20240142438A1, “MULTI-ORGAN MODEL” (CELLARTGEN INC., priority 2021, published 2024)
“Also recorded” adds a separate entry of the source.

Legend:
intestinal organoid = assay: Candidate drugs on intestinal organoid in multi-organ NASH organoid model (chip); type: cell-based, mouse; conditions: oleic acid 500 μM + drug 50 μM, 3 days in liver chamber
Protocol: (§1) A multi-organ NASH model was constructed by applying not only conventional Matrigel, a commercially available culture scaffold, but also a decellularized tissue-derived hydrogel scaffold to culture of each organoid in a multi-organ device. Liver and pancreas organoids were obtained by extracting adult stem cells from a mouse tissue, encapsulated in a decellularized liver tissue-derived matrix (6 mg/ml) and a decellularized pancreas tissue-derived matrix (4 mg/ml), respectively, at a cell density of 70,000 cells/30 μL gel, and cultured. An intestinal organoid was obtained by extracting intestinal crypts from a mouse intestinal tissue and encapsulated in a decellularized intestinal tissue-derived matrix (2 mg/ml) at a cell density of 800 crypts/30 μL gel, and cultured. […] The cardiac organoid was cultured on a hydrogel (20 organoids/70 μL gel bed) prepared by crosslinking of a decellularized cardiac tissue-derived matrix (5 mg/ml) in the form of a 70 μL gel bed at the bottom of the device. The decellularized matrix for culturing each organoid was applied at the optimal concentration for differentiation of each organoid as determined through previous research.

liver organoid = assay: Candidate drugs on liver organoid in multi-organ NASH organoid model (chip); type: cell-based, mouse; conditions: oleic acid 500 μM + drug 50 μM, 3 days; for low-density cholesterol (LDL) levels in the liver organoids: cholesterol analysis of disrupted organoids, vs No Treatment (NT)
Protocol: as §1
Obeticholic acid (OCA), a semi-synthetic bile acid analog, is an agonist for FXR (farnesoid X receptor) to regulate bile acid metabolism, inflammation, fibrosis, and sugar/lipid metabolism. […] Elafibranor (Ela), a dual agonist for PPARα/δ, is a drug that inhibits fatty acid biosynthesis and glucose biosynthesis in the liver and has been used as a drug for cardiometabolic diseases. Liraglutide (Lira), an agonist for glucagon-like peptide-1 (GLP-1), is a drug that has been used to treat diabetes.

cardiac organoid = assay: Candidate drugs on cardiac organoid in multi-organ NASH organoid model (chip); type: cell-based, mouse; conditions: oleic acid 500 μM + drug 50 μM, 3 days in liver chamber
Protocol: as §1

[1] = tested on: human iPSC-derived intestinal organoids; conditions: immunofluorescence staining, oleic acid 500 μM + drug 50 μM, 3 days in liver chamber
Protocol: (§2) Human iPSC-derived intestinal organoids were differentiated into hindgut spheroids through endoderm, encapsulated in Matrigel, and matured for about 20 to 30 days. The mature intestinal organoids were extracted from Matrigel, re-encapsulated in a decellularized intestinal tissue-derived matrix
(§3) (IEM), and further cultured. […] Human iPSC-derived cardiac organoids were induced to mature into cardiomyocytes through mesenchyma and cardiac progenitor cells, and then 400,000 cells were mixed in 20 μL of a decellularized heart tissue-derived matrix (HEM) to prepare three-dimensional organoids. […] Each organoids cultured in a decellularized tissue-derived matrix was seeded into a multi-organ microfluidic device and then cultured in a normal culture medium suitable for each organ for 2 days. Then, the NASH group was treated with oleic acid (500 μM) and cultured for 3 days only in the chamber in which the liver organoid was cultured, and the groups treated with the respective drugs were treated with oleic acid (500 μM) and the respective drugs (50 μM) for 3 days in the chamber in which the liver organoid was cultured. A multi-organ device in which a normal liver organoid (Normal) not treated with the fatty acid was used as a control group.

[2] = tested on: human iPSC-derived liver organoids; assay: Candidate drugs on hiPSC-derived liver organoids in multi-organ NASH model; type: cell-based; conditions: oleic acid 500 μM + drug 50 μM, 3 days
Protocol: Human iPSC-derived liver organoids were differentiated into hepatic endoderm cells through endoderm, and then a total of 500,000 cells including the hepatic endoderm cells, vascular endothelial cells (HUVEC) and mesenchymal stem cells (hMSC) at a ratio of 10:7:2 were mixed in 10 μL of culture medium. The mixture was coated onto 10 μL of a decellularized liver tissue-derived matrix (LEM) to induce the formation of three-dimensional organoids. […] Human iPSC-derived pancreas organoids were differentiated into beta cells through endoderm, gut endoderm, pancreatic endoderm, and pancreatic progenitor cells, and then a total of 500,000 cells including the beta cells, vascular endothelial cells (HUVEC) and mesenchymal stem cells (hMSC) at a ratio of 10:7:2 were mixed in 10 μL of culture medium. The mixture was coated onto 10 μL of a decellularized pancreas tissue-derived matrix (PEM) to induce the formation of three-dimensional organoids. […] Each organoids cultured in a decellularized tissue-derived matrix was seeded into a multi-organ microfluidic device and then cultured in a normal culture medium suitable for each organ for 2 days. Then, the NASH group was treated with oleic acid (500 μM) and cultured for 3 days only in the chamber in which the liver organoid was cultured, and the groups treated with the respective drugs were treated with oleic acid (500 μM) and the respective drugs (50 μM) for 3 days in the chamber in which the liver organoid was cultured. A multi-organ device in which a normal liver organoid (Normal) not treated with the fatty acid was used as a control group.

pancreas organoid = assay: Candidate drugs on pancreas organoid in multi-organ NASH organoid model (chip); type: cell-based, mouse; conditions: oleic acid 500 μM + drug 50 μM, 3 days in liver chamber
Protocol: as §1

[3] = tested on: human iPSC-derived cardiac organoids; conditions: immunofluorescence staining; oleic acid 500 μM + drug 50 μM, 3 days in liver chamber
Protocol: as §2, §3

[4] = tested on: human iPSC-derived pancreas organoids; conditions: immunofluorescence staining; oleic acid 500 μM + drug 50 μM, 3 days in liver chamber
Protocol: Human iPSC-derived liver organoids were differentiated into hepatic endoderm cells through endoderm, and then a total of 500,000 cells including the hepatic endoderm cells, vascular endothelial cells (HUVEC) and mesenchymal stem cells (hMSC) at a ratio of 10:7:2 were mixed in 10 μL of culture medium. The mixture was coated onto 10 μL of a decellularized liver tissue-derived matrix (LEM) to induce the formation of three-dimensional organoids. […] Human iPSC-derived pancreas organoids were differentiated into beta cells through endoderm, gut endoderm, pancreatic endoderm, and pancreatic progenitor cells, and then a total of 500,000 cells including the beta cells, vascular endothelial cells (HUVEC) and mesenchymal stem cells (hMSC) at a ratio of 10:7:2 were mixed in 10 μL of culture medium. The mixture was coated onto 10 μL of a decellularized pancreas tissue-derived matrix (PEM) to induce the formation of three-dimensional organoids. […] Each organoids cultured in a decellularized tissue-derived matrix was seeded into a multi-organ microfluidic device and then cultured in a normal culture medium suitable for each organ for 2 days. […]

Compound: CSc1ccc(C(=O)/C=C/c2cc(C)c(OC(C)(C)C(=O)O)c(C)c2)cc1 [Ela, Elafibranor]
- expression level of OCLN, a tight junction marker of the gut barrier (intestinal organoid; quantitative PCR): not improved
- expression levels of CHGA and MUC2, intestinal differentiation markers (intestinal organoid; quantitative PCR): not much recovered; also recorded: lower in the Ela-treated group than in No Treatment (NT) group
- low-density cholesterol (LDL) levels in the liver organoids (liver organoid): an improvement in LDL levels compared to the No Treatment (NT) group; also recorded: a greater improvement than Lira
- expression level of α-SMA, a fibrosis marker (fibrosis) (liver organoid; immunofluorescence staining): improved the most
- COL1A1 expression (liver organoid; quantitative PCR): remarkably effective in reducing the increased expression of COL1A1
- expression levels of HNF4A and ALB, hepatic differentiation markers (liver organoid; quantitative PCR): no significant effect on hepatic differentiation and functional recovery
- expression of α-SMA and COL1A1, fibrosis and drug toxicity-related markers (liver organoid; quantitative PCR): improved
- expression of CTNT and F-actin, myocardial differentiation and actin-filament markers (cardiac organoid; immunostaining): recovered to some extent
- expression level of ACTC1, a cardiac differentiation marker (cardiac organoid; quantitative PCR): recovered

Compound: O=C1[C@H](CC[C@H](O)c2ccc(F)cc2)[C@@H](c2ccc(O)cc2)N1c1ccc(F)cc1 [Eze, Ezetimibe]
- expression of NPC1L1 (intestinal organoid; immunostaining): the most significant decrease in expression
- expression level of OCLN, a tight junction marker of the gut barrier (intestinal organoid; quantitative PCR): recovered to some extent
- expression levels of CHGA and MUC2, intestinal differentiation markers (intestinal organoid; quantitative PCR): not much recovered
- gene expression of FGF15 in the intestinal organoid (intestinal organoid; quantitative PCR): recovered to some extent
- expression level of NPC1L1 [1]: decreased
- expression level of the differentiation marker, MUC2 ([1]; vs No Treatment group): recovered to some extent
- low-density cholesterol (LDL) levels in the liver organoids (liver organoid): significantly lower than those in the No Treatment (NT) group
- expression levels of HNF4A and ALB, hepatic differentiation markers (liver organoid; quantitative PCR): recovered to some extent
- expression of α-SMA and COL1A1, fibrosis and drug toxicity-related markers (liver organoid; quantitative PCR): improved
- expression level of FGF19 ([2]; immunofluorescence staining): recovered only in the OCA-treated group
- expression level of α-SMA, a fibrosis and drug toxicity-related marker ([2]; immunofluorescence staining): decreased to some extent
- fatty acid accumulation (BODIPY staining) [2]: partially decreased
- structure of the liver organoids ([2]; optical microscopy): some of the cells in the outer part died
- expression level of KRT19, a pancreatic exocrine cell marker (pancreas organoid; quantitative PCR): recovered to some extent
- expression level of PDX1, an endocrine cell marker (pancreas organoid; quantitative PCR): not recovered
- expression level of ACTC1, a cardiac differentiation marker (cardiac organoid; quantitative PCR): limitations in improving cardiac differentiation/functionality
- expression levels of CTNT and F-actin, myocardial differentiation and actin-filament markers [3]: recovered to some extent
- expression levels of insulin and NKX6.1, pancreatic differentiation markers [4]: less significantly recovered

Compound: CCCCCCCCCCCCCCCC(=O)N[C@@H](CCC(=O)NCCCC[C@H](NC(=O)[C@H](C)NC(=O)[C@H](C)NC(=O)[C@H](CCC(N)=O)NC(=O)CNC(=O)[C@H](CCC(=O)O)NC(=O)[C@H](CC(C)C)NC(=O)[C@H](Cc1ccc(O)cc1)NC(=O)[C@H](CO)NC(=O)[C@H](CO)NC(=O)[C@@H](NC(=O)[C@H](CC(=O)O)NC(=O)[C@H](CO)NC(=O)[C@@H](NC(=O)[C@H](Cc1ccccc1)NC(=O)[C@@H](NC(=O)CNC(=O)[C@H](CCC(=O)O)NC(=O)[C@H](C)NC(=O)[C@@H](N)Cc1cnc[nH]1)[C@@H](C)O)[C@@H](C)O)C(C)C)C(=O)N[C@@H](CCC(=O)O)C(=O)N[C@@H](Cc1ccccc1)C(=O)N[C@H](C(=O)N[C@@H](C)C(=O)N[C@@H](Cc1c[nH]c2ccccc12)C(=O)N[C@@H](CC(C)C)C(=O)N[C@H](C(=O)N[C@@H](CCCNC(=N)N)C(=O)NCC(=O)N[C@@H](CCCNC(=N)N)C(=O)NCC(=O)O)C(C)C)[C@@H](C)CC)C(=O)O [Lira, Liraglutide]
- gut barrier and budding of the intestinal organoid (intestinal organoid; optical microscopy): the gut barrier was maintained to some extent but organoid budding hardly occurred
- epithelial lumen of the pancreas organoids (pancreas organoid; optical microscopy): increased in thickness, showing the pattern of early fibrosis
- expression level of α-SMA, a fibrosis and drug toxicity-related marker (pancreas organoid; quantitative PCR): pancreatitis and fibrosis were reduced
- expression level of α-SMA, a fibrosis and drug toxicity-related marker (cardiac organoid; immunostaining): fibrosis was not improved
- shape of the cardiac organoids (cardiac organoid; optical microscopy): some cells inside the organoids died, inducing severe cardiotoxicity
- expression level of α-SMA, a fibrosis and drug toxicity-related marker (fibrosis) (cardiac organoid; quantitative PCR): fibrosis tended to worsen
